Source: patent US12258329B2 (Merck Sharp & Dohme LLC, priority 2018, dated 2025)

Test system: infected PBMCs (VSV-G pseudotyped HIV virus VSV-G/pNLG1-P2A-ΔEnv)
Assay: cells
Type: cell-based, human
Conditions: Homo sapiens, PBMC, read-out: TACK EC50

SMILES	EC50 [nM]
COc1c(C#N)cc(C(F)F)cc1Oc1c(C(F)(F)C(F)F)ncn(Cc2cnc(C)[nH]c2=O)c1=O [Example 1, 5-(difluoromethyl)-2-methoxy-3-((1-((2-methyl-6-oxo-1,6-dihydropyrimidin-5-yl)methyl)-6-oxo-4-(1,1,2,2-tetrafluoroethyl)-1,6-dihydropyrimidin-5-yl)oxy)benzonitrile]	431
Cc1ncc(Cn2cnc(C(F)(F)C(F)F)c(Oc3cc(C#N)cc(C(F)F)c3)c2=O)c(=O)[nH]1 [Example 2, 3-(difluoromethyl)-5-((1-((2-methyl-6-oxo-1,6-dihydropyrimidin-5-yl)methyl)-6-oxo-4-(1,1,2,2-tetrafluoroethyl)-1,6-dihydropyrimidin-5-yl)oxy)benzonitrile]	411
Cc1nc(C)c(Cn2cnc(C(C)(F)F)c(Oc3cc(Cl)cc(C#N)c3Cl)c2=O)c(=O)[nH]1 [Example 3, 2,5-dichloro-3-((4-(1,1-difluoroethyl)-1-((2,4-dimethyl-6-oxo-1,6-dihydropyrimidin-5-yl)methyl)-6-oxo-1,6-dihydropyrimidin-5-yl)oxy)benzonitrile]	417
Cc1nc(C)c(Cn2cnc(C(C)(F)F)c(Oc3cc(Cl)cc(C#N)c3C)c2=O)c(=O)[nH]1 [Example 4, 5-chloro-3-((4-(1,1-difluoroethyl)-1-((2,4-dimethyl-6-oxo-1,6-dihydropyrimidin-5-yl)methyl)-6-oxo-1,6-dihydropyrimidin-5-yl)oxy)-2-methylbenzonitrile]	412
Cc1nc(C)c(Cn2cnc(C(F)(F)CF)c(Oc3cc(C(F)F)cc(C#N)c3C)c2=O)c(=O)[nH]1 [Example 5, 5-(difluoromethyl)-3-((1-((2,6-dimethyl-4-oxo-4,5-dihydropyrimidin-5-yl)methyl)-6-oxo-4-(1,1,2-trifluoroethyl)-1,6-dihydropyrimidin-5-yl)oxy)-2-methylbenzonitrile]	187
Cc1nc(C)c(Cn2cnc(C(C)(F)F)c(Oc3cc(C(F)F)cc(C#N)c3C)c2=O)c(=O)[nH]1 [Example 6, 3-((4-(1,1-difluoroethyl)-1-((2,4-dimethyl-6-oxo-1,6-dihydropyrimidin-5-y1)methyl)-6-oxo-1,6-dihydropyrimidin-5-yl)oxy)-5-(difluoromethyl)-2-methylbenzonitrile]	201
Cc1nc(C)c(Cn2cnc(C(F)(F)C(F)F)c(Oc3cc(Br)cc(C#N)c3)c2=O)c(=O)[nH]1 [Example 7, 3-bromo-5-((1-((2,4-dimethyl-6-oxo-1,6-dihydropyrimidin-5-y1)methyl)-6-oxo-4-(1,1,2,2-tetrafluoroethyl)-1,6-dihydropyrimidin-5-yl)oxy)benzonitrile]	353
Cc1nc(C)c(Cn2cnc(C(F)(F)F)c(Oc3cc(C(F)F)cc(C#N)c3C)c2=O)c(=O)[nH]1 [Example 8, 5-(difluoromethyl)-3-((1-((2,4-dimethyl-6-oxo-1,6-dihydropyrimidin-5-y1)methyl)-6-oxo-4-(trifluoromethyl)-1,6-dihydropyrimidin-5-y1)oxy)-2-methylbenzonitrile]	252
COc1c(C#N)cc(C(F)F)cc1Oc1c(C(C)(F)F)ncn(Cc2c(C)nc(C)[nH]c2=O)c1=O [Example 9, 3-((4-(1,1-difluoroethyl)-1-((2,4-dimethyl-6-oxo-1,6-dihydropyrimidin-5-y1)methyl)-6-oxo-1,6-dihydropyrimidin-5-yl)oxy)-5-(difluoromethyl)-2-methoxybenzonitrile]	287
COc1c(C#N)cc(C(F)F)cc1Oc1c(C(F)(F)C(F)F)ncn(Cc2c(C)nc(C)[nH]c2=O)c1=O [Example 10, 5-(difluoromethyl)-3-((1-((2,4-dimethyl-6-oxo-1,6-dihydropyrimidin-5-y1)methyl)-6-oxo-4-(1,1,2,2-tetrafluoroethyl)-1,6-dihydropyrimidin-5-y1)oxy)-2-methoxybenzonitrile]	146
Cc1nc(C)c(Cn2cnc(C(C)(F)F)c(Oc3c(C)cc(C#N)cc3C)c2=O)c(=O)[nH]1 [Example 11, 4-((4-(1,1-difluoroethyl)-1-((2,4-dimethyl-6-oxo-1,6-dihydropyrimidin-5-yl)methyl)-6-oxo-1,6-dihydropyrimidin-5-yl)oxy)-3,5-dimethylbenzonitrile]	267
Cc1nc(C)c(Cn2cnc(C(C)(F)F)c(Oc3c(C)cc(C#N)cc3Cl)c2=O)c(=O)[nH]1 [Example 12, 3-chloro-4-((4-(1,1-difluoroethyl)-1-((2,4-dimethyl-6-oxo-1,6-dihydropyrimidin-5-y1)methyl)-6-oxo-1,6-dihydropyrimidin-5-yl)oxy)-5-methylbenzonitrile]	200
Cc1nc(C)c(Cn2cnc(C(C)(F)F)c(Oc3c(Cl)cc(C#N)cc3Cl)c2=O)c(=O)[nH]1 [Example 13, 3,5-dichloro-4-((4-(1,1-difluoroethyl)-1-((2,4-dimethyl-6-oxo-1,6-dihydropyrimidin-5-yl)methyl)-6-oxo-1,6-dihydropyrimidin-5-yl)oxy) benzonitrile]	395
Cc1nc(C)c(Cn2cnc(C(C)(F)F)c(Oc3cc(C(F)F)cc(C#N)c3F)c2=O)c(=O)[nH]1 [Example 15, 3-((4-(1,1-difluoroethyl)-1-((2,4-dimethyl-6-oxo-1,6-dihydropyrimidin-5-yl)methyl)-6-oxo-. 1,6-dihydropyrimidin-5-yl)oxy)-5-(difluoromethyl)-2-fluorobenzonitrile]	245
Cc1nc(C)c(Cn2cnc(C(C)(F)F)c(Oc3c(C)cc(C#N)cc3C(F)(F)F)c2=O)c(=O)[nH]1 [Example 16, 4-((4-(1,1-difluoroethyl)-1-((4-hydroxy-2,6-dimethylpyrimidin-5-yl)methyl)-6-oxo-1,6-dihydropyrimidin-5-yl)oxy)-3-methyl-5-(trifluoromethyl)benzonitrile]	199
Cc1nc(C)c(Cn2cnc(C(F)(F)C(F)F)c(Oc3c(C)cc(C#N)cc3C3CC3)c2=O)c(=O)[nH]1 [Example 19, 3-cyclopropyl-4-((1-((2,4-dimethyl-6-oxo-1,6-dihydropyrimidin-5-yl)methyl)-6-oxo-4-(1,1,2,2-tetrafluoroethyl)-1,6-dihydropyrimidin-5-yl)oxy)-5-methylbenzonitrile]	315
Cc1nc(C)c(Cn2cnc(C(F)(F)C(F)F)c(Oc3c(C)cc(C#N)cc3C(F)F)c2=O)c(=O)[nH]1 [Example 20, 3-(difluoromethyl)-4-((1-((2,4-dimethyl-6-oxo-1,6-dihydropyrimidin-5-yl)methyl)-6-oxo-4-(1,1,2,2-tetrafluoroethyl)-1,6-dihydropyrimidin-5-y1)oxy)-5-methylbenzonitrile]	365
Cc1nc(C)c(Cn2cnc(C(F)(F)C(F)F)c(Oc3cc(C(F)F)cc(C#N)c3Cl)c2=O)c(=O)[nH]1 [Example 21, 2-chloro-5-(difluoromethyl)-3-((1-((2,4-dimethyl-6-oxo-1,6-dihydropyrimidin-5-yl)methyl)-6-oxo-4-(1,1,2,2-tetrafluoroethyl)-1,6-dihydropyrimidin-5-yl)oxy)benzonitrile]	132
Cc1nc(C)c(Cn2cnc(C(C)(F)F)c(Oc3cc(Cl)cc(C#N)c3F)c2=O)c(=O)[nH]1 [Example 22, 5-Chloro-3-((4-(1,1-difluoroethyl)-1-((2,4-dimethyl-6-oxo-1,6-dihydropyrimidin-5-yl)methyl)-6-oxo-1,6-dihydropyrimidin-5-yl)oxy)-2-fluorobenzonitrile]	181
Cc1nc(C)c(Cn2cnc(C(C)(F)F)c(Oc3cc(C#N)cc(C(F)F)c3)c2=O)c(=O)[nH]1 [Example 23, 3-((4-(1,1-difluoroethyl)-1-((2,4-dimethyl-6-oxo-1,6-dihydropyrimidin-5-yl)methyl)-6-oxo-1,6-dihydropyrimidin-5-yl)oxy)-5-(difluoromethyl)benzonitrile]	429
Cc1nc(COc2ncccn2)[nH]c(=O)c1Cn1cnc(C(C)(F)F)c(Oc2cc(Cl)cc(C#N)c2F)c1=O [Example 24, 5-chloro-3-((4-(1,1-difluoroethyl)-1-((4-methyl-6-oxo-2-((pyrimidin-2-yloxy)methyl)-1,6-dihydropyrimidin-5-yl)methyl)-6-oxo-1,6-dihydropyrimidin-5-yl)oxy)-2-fluorobenzonitrile]	339
Cc1nc(COc2ncccn2)[nH]c(=O)c1Cn1cnc(C(C)(F)F)c(Oc2cc(C(F)F)cc(C#N)c2C)c1=O [Example 25, 3-((4-(1,1-difluoroethyl)-1-((4-methyl-6-oxo-2-((pyrimidin-2-yloxy)methyl)-1,6-dihydropyrimidin-5-yl)methyl)-6-oxo-1,6-dihydropyrimidin-5-yl)oxy)-5-(difluoromethyl)-2-methylbenzonitrile]	353
Cc1cc(C#N)c(C)c(Oc2c(Br)ncn(Cc3c(C)nc(C)[nH]c3=O)c2=O)c1 [Example 26, 3-((4-bromo-1-((2,4-dimethyl-6-oxo-1,6-dihydropyrimidin-5-yl)methyl)-6-oxo-1,6-dihydropyrimidin-5-yl)oxy)-2,5-dimethylbenzonitrile]	413
Cc1nc(C)c(Cn2cnc(C(F)(F)C(F)F)c(Oc3cc(Cl)cc(C#N)c3N)c2=O)c(=O)[nH]1 [Example 27, 2-amino-5-chloro-3-((1-((2,4-dimethyl-6-oxo-1,6-dihydropyrimidin-5-yl)methyl)-6-oxo-4-(1,1,2,2-tetrafluoroethyl)-1,6-dihydropyrimidin-5-yl)oxy)benzonitrile]	451
Cc1nc(N)c(Cn2cnc(C(F)(F)C(F)(F)F)c(Oc3cc(C(F)F)cc(C#N)c3C)c2=O)c(=O)[nH]1 [Example 37, 3-((1-((4-amino-2-methyl-6-oxo-1,6-dihydropyrimidin-5-yl)methyl)-6-oxo-4-(perfluoroethyl)-1,6-dihydropyrimidin-5-yl)oxy)-5-(difluoromethyl)-2-methylbenzonitrile]	114

Same assay, conditions: read-out: TACK EC50

SMILES	EC50 [nM]
Cc1nc(C(C)O)[nH]c(=O)c1Cn1cnc(C(F)(F)C(F)F)c(Oc2cc(C(F)F)cc(C#N)c2C)c1=O (single isomer, unassigned) [Example 54, 5-(difluoromethyl)-3-((1-((2-(1-hydroxyethyl)-4-methyl-6-oxo-1,6-dihydropyrimidin-5-yl)methyl)-6-oxo-4-(1,1,2,2-tetrafluoroethyl)-1,6-dihydropyrimidin-5-yl)oxy)-2-methylbenzonitrile]	213
